Measured values reported in US10544112B2, “Identification of ebsulfur analogues with broad-spectrum antifungal activity” (priority 2017, dated 2020).
Converted amounts (≈) assume the structure as drawn. Like-named read-outs stand apart in the source and are kept apart here.

Legend:
[1] = tested on: C. albicans ATCC MYA-2310(S) (strain E); test: Antifungal MIC determination (CLSI M27-A3, 96-well); assay type: cell-based, Candida albicans; settings: strain E; compounds 1-4n and AmB; 48 h, RPMI 1640
Procedure, shortened: (§1)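 CLSI M27-A3 microdilution, modified; RPMI 1640/0.165 M MOPS pH 7.0; final drug 12.5-0.02 μg/mL (2-fold series), inoculum 5×10^3 CFU/mL; 48 h, 35° C. Aspergillus: spores from 3-5 day PDA cultures at 25° C, tested likewise.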

[2] = tested on: C. albicans ATCC MYA-2876(S) (strain C); test: as above; assay type: cell-based, Candida albicans; settings: strain C; compounds 1-4n and AmB; 48 h, RPMI 1640
Procedure, shortened: as §1

[3] = tested on: Aspergillus terreus ATCC MYA-3633 (strain M); test: Antifungal MIC determination, filamentous fungi spores; assay type: cell-based; settings: strain M; all compounds; spores
Procedure, shortened: (§2)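 Broth microdilution per CLSI M27-A3 (modified) in RPMI 1640 buffered to pH 7.0 with 0.165 M MOPS; yeast inocula grown in PDB, Aspergillus spores from PDA cultures at 25° C. Final drug 12.5-0.02 μg/mL, inoculum 5×10^3 CFU/mL; incubation 48 h at 35° C.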

[4] = tested on: Aspergillus nidulans ATCC 38163 (strain L); test: as above; assay type: cell-based; settings: strain L; spores
Procedure, shortened: as §2

[5] = tested on: Aspergillus flavus ATCC MYA-3631 (strain K); test: as above; assay type: cell-based; settings: all compounds
Procedure, shortened: as §2

[6] = tested on: Murine red blood cells (mRBCs); test: Hemolytic assay
Experimental: Hemolytic activity was determined as previously described with minor modifications (FIG. 3). […] Compounds were serially diluted in Eppendorf tubes containing H2O (100 μL). […] The tubes were then incubated for 1 h at 37° C. Tubes containing dd H2O (200 μL) and triton X-100® (1% v/v, 2 μt) served as negative (blank) and positive (100%) control, respectively. The percent hemolysis was calculated using the following equation: % hemolysis=[(absorbance of sample)−(absorbance of blank)]×100/(absorbance of positive control). Fifty percent hemolysis (HC50) values were defined as the concentrations of compounds required to lyse 50% of the mRBCs.

[7] = tested on: C. albicans ATCC 64124 (strain B); assay type: cell-based, Candida albicans
Experimental: The efficiency of the compounds to kill C. albicans ATCC 64124 (strain B) was monitored using a previously published protocol. The cell suspensions were prepared to achieve an inoculum of approximately 1-4×10^5 CFU/mL in RPMI 1640 medium at 35° C. […] After fungal cell addition, at 0, 3, 6, 9, 12, and 24 h, the tubes were vortexed and 100 μL aliquots were removed from each solution, spread onto PDA plates, and incubated at 35° C. Colony counts were determined after 24 h of incubation. The experiments were performed in duplicate (FIG. 2).
Time-kill assays with ebsulfur (2a) and analogue 3a (FIG. 2) were performed to determine the rate of fungicidal activity of the compounds if the invention.

| SMILES | MIC-0 [1] | MIC-0 [2] | MIC-0 [3] | MIC-0 [4] | MIC-0 [5] | fold MIC lower than the hemolytic concentration ([6]; Aspergillus strains) | fold MIC lower than the hemolytic concentration ([6]; Candida strains) | hemolytic concentration ([6]; mRBCs, 1 h at 37° C.) | fungicidal or fungistatic effect [7] | reduction of fungal cells [7] | fungicidal or fungistatic effect ([7]; 1× MIC) | fungicidal or fungistatic effect ([7]; 2× MIC) |
| --- | --- | --- | --- | --- | --- | --- | --- | --- | --- | --- | --- | --- |
| CC(C)(C)n1sc2ccccc2c1=O [Compound 3g] | 1.56 mg/L (≈ 7.53 µM) | 3.13 mg/L (≈ 15.1 µM) | 0.10 mg/L (≈ 0.482 µM) | 0.10 µg/mL (≈ 0.482 µM) | 0.10 mg/L (≈ 0.482 µM) |  |  |  |  |  |  |  |
| CCCCCn1sc2ccccc2c1=O [Compound 3a] | 0.39 mg/L (≈ 1.76 µM) | 0.78 mg/L (≈ 3.52 µM) | ≤0.02 mg/L | ≤0.02 µg/mL | ≤0.02 mg/L | ≥ 195 fold | at least 5 fold | approximately 3.9 μg/mL | fungistatic | 4 log | fungistatic | fungistatic |
| CCCCCCn1sc2ccccc2c1=O [Compound 3b] | 0.78 mg/L (≈ 3.31 µM) | 0.78 mg/L (≈ 3.31 µM) | ≤0.02 mg/L | ≤≤0.02 μg/mL | ≤0.02 mg/L |  |  |  |  |  |  |  |
